Target: T1, GacB (MxGacB, MXAN_2643), Hypr GGDEF enzyme (Myxococcus xanthus, UniProt Q1D911)
T1 sequence (Q1D911 1-364): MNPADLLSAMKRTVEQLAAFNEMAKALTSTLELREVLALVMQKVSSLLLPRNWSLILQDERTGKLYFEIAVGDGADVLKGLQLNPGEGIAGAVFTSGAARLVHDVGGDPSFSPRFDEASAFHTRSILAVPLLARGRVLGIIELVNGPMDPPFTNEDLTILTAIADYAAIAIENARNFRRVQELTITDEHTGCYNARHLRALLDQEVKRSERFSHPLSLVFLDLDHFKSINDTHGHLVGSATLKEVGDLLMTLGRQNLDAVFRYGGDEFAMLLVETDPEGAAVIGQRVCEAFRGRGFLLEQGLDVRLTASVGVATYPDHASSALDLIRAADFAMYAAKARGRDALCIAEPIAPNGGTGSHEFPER
Experiment: LC-MS inhibition assay
Format: biochemical

- IC50: 17.8 µM
Structure (SMILES): Nc1nc2c(ncn2[C@@H]2O[C@@H]3CO[P@](=O)(O)O[C@H]4[C@@H](O)[C@H](n5cnc6c(=O)[nH]c(N)nc65)O[C@@H]4CO[P@](=O)(O)O[C@H]3[C@H]2O)c(=O)[nH]1 [cdiG, cyclic di-GMP]

From publication PMC7209772 (Molecular microbiology, 2019)
